Experimental data from patent publication US12404295B2, “(Hetero)aryl-methyl-thio-beta-D-galactopyranoside derivatives” (Idorsia Pharmaceuticals Ltd, priority 2019, dated 2025).
Read-outs that look alike come from different tables or passages of the source.

Assays:
[1] = biological target: human Gal-3 (hGal-3) (Homo sapiens (Human), UniProt P17931); test: competitive binding assay: biotinylated hGal-3 binding to microplate-adsorbed asialofetuin (ASF)
In short: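 Competition of compounds with biotinylated human Gal-3 for asialofetuin-coated plates, 3 hours at 4° C. Bound Gal-3 detected with streptavidin-peroxidase (80 ng/mL, 1 hour, 4° C) and ABTS substrate. IC50 reported as the mean of several measurements.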

[2] = biological target: human Gal-1 (hGal-1) (Homo sapiens (Human), UniProt P09382); test: competitive binding assay: biotinylated hGal-1 binding to microplate-adsorbed asialofetuin (ASF); conditions: Table 15; read-out: IC50 (Galectin-1 inhibition)
In short: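 Biotinylated human Gal-1 (300-1000 ng/mL) competes with serially diluted compound for binding to ASF-coated plates, 3 h at 4° C. Bound protein detected with streptavidin-peroxidase and ABTS substrate (spectrophotometric). IC50 given as mean of several measurements.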

[3] = Table 10, 2-OMe-Gal inhibitors, read-out: IC50 (Gal-3 inhibition)
[4] = Gal-3 inhibition, binding of biotinylated hGal-3 to ASF, mean values, read-out: IC50
[5] = Table 11, read-out: IC50 (Gal-3 inhibition)
[6] = Table 5, read-out: IC50 (Gal-3 inhibition)

Sequence of human Gal-1 (hGal-1) (P09382 whole entry): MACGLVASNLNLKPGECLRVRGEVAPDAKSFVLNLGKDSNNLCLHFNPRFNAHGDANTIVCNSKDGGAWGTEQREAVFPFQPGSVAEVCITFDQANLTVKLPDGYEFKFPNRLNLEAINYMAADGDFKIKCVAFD
Sequence of human Gal-3 (hGal-3) (P17931 whole entry): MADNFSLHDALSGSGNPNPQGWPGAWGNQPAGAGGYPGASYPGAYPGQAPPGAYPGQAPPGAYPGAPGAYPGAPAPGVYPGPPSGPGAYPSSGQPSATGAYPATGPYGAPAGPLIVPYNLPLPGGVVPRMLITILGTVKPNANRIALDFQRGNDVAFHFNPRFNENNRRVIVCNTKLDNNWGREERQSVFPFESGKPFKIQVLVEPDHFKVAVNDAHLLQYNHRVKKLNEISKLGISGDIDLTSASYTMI

Compound	IC50 [2] [µM]	IC50 [1, 6] [µM]	also measured
CO[C@@H]1[C@@H](n2cc(-c3cc(F)c(F)c(F)c3)nn2)[C@@H](O)[C@@H](CO)O[C@H]1S[C@H](c1nocc1C)C1(O)CCOCC1 [Example 2.41.120R.I., (2R,3R,4S,5R,6S)-2-(Hydroxymethyl)-6-(((R)-(4-hydroxytetrahydro-2H-pyran-4-yl)(4-methylisoxazol-3-yl)methyl)thio)-5-methoxy-4-(4-(3,4,5-trifluorophenyl)-1H-1,2,3-triazol-1-yl)tetrahydro-2H-pyran-3-ol]	0.5	–	IC50 [1, 3]: 0.19 µM
CC(C)(O)C(S[C@@H]1O[C@H](CO)[C@H](O)[C@H](n2cc(-c3ccc4ccccc4c3)nn2)[C@H]1O)c1ccccc1C(F)(F)F (stereo partly drawn) [Example 4.31.112, (2S,3R,4S,5R,6R)-2-((2-Hydroxy-2-methyl-1-(2-(trifluoromethyl)phenyl)propyl)thio)-6-(hydroxymethyl)-4-(4-(naphthalen-2-yl)-1H-1,2,3-triazol-1-yl)tetrahydro-2H-pyran-3,5-diol]	2.27	–	IC50 [1, 4]: 2.24 µM
CO[C@@H]1[C@@H](n2cc(-c3ccc(F)c(F)c3)nn2)[C@@H](O)[C@@H](CO)O[C@H]1S[C@@H](c1ncccc1C)C1(O)CCC(F)(F)CC1 [Example 16.44.126S.I., (2R,3R,4S,5R,6S)-6-(((S)-(4,4-Difluoro-1-hydroxycyclohexyl)(3-methylpyridin-2-yl)methyl)thio)-4-(4-(3,4-difluorophenyl)-1H-1,2,3-triazol-1-yl)-2-(hydroxymethyl)-5-methoxytetrahydro-2H-pyran-3-ol]	54.2	–	IC50 ([1]; Table 14, read-out: IC50 (Gal-3 inhibition)): 1.87 µM
Cc1nc(C)c([C@@H](S[C@@H]2O[C@H](CO)[C@H](O)[C@H](n3cc(-c4cc(F)c(F)c(F)c4)nn3)[C@H]2O)C2(O)CCN(C)CC2)nc1C [Example 2.40.119R., (2S,3R,4S,5R,6R)-2-(((R)-(4-Hydroxy-1-methylpiperidin-4-yl)(3,5,6-trimethylpyrazin-2-yl)methyl)thio)-6-(hydroxymethyl)-4-(4-(3,4,5-trifluorophenyl)-1H-1,2,3-triazol-1-yl)tetrahydro-2H-pyran-3,5-diol]	0.11	–	IC50 [1, 4]: 0.05 µM
CO[C@@H]1[C@@H](n2cc(-c3cc(F)c(F)c(F)c3)nn2)[C@@H](O)[C@@H](CO)O[C@H]1S[C@@H](c1nccc(C(F)(F)F)c1C)C1(O)CCC(F)(F)CC1 [Example 2.44.147S.I., (2R,3R,4S,5R,6S)-6-(((S)-(4,4-Difluoro-1-hydroxycyclohexyl)(3-methyl-4-(trifluoromethyl)pyridin-2-yl)methyl)thio)-2-(hydroxymethyl)-5-methoxy-4-(4-(3,4,5-trifluorophenyl)-1H-1,2,3-triazol-1-yl)tetrahydro-2H-pyran-3-ol]	31.8	–	IC50 [1, 5]: 5.3 µM
CCc1cccnc1[C@@H](S[C@@H]1O[C@H](CO)[C@H](O)[C@H](n2cc(-c3cc(F)c(F)c(F)c3)nn2)[C@H]1OC)C1(O)CCC(F)(F)CC1 [Example 2.44.142R.I., (2R,3R,4S,5R,6S)-6-(((R)-(4,4-Difluoro-1-hydroxycyclohexyl)(3-ethylpyridin-2-yl)methyl)thio)-2-(hydroxymethyl)-5-methoxy-4-(4-(3,4,5-trifluorophenyl)-1H-1,2,3-triazol-1-yl)tetrahydro-2H-pyran-3-ol [1,3-di-deoxy-1-((4,4-difluoro-1-hydroxy-cyclohexan-1-yl)-(3-(-ethyl)pyridin-2-yl)methyl-(R)-thio)-2-O-methyl-3-[4-(3,4,5-trifluorophenyl)-1H-1,2,3-triazol-1-yl]-b-D-galactopyranoside]]	0.1	–	IC50 [1, 5]: 0.03 µM
CC(C)(O)[C@H](S[C@@H]1O[C@H](CO)[C@H](O)[C@H](n2cc(-c3cc(F)c(F)c(F)c3)nn2)[C@H]1O)c1ccccc1Cl [Example 2.31.111R., (2S,3R,4S,5R,6R)-2-(((R)-1-(2-Chlorophenyl)-2-hydroxy-2-methylpropyl)thio)-6-(hydroxymethyl)-4-(4-(3,4,5-trifluorophenyl)-1H-1,2,3-triazol-1-yl)tetrahydro-2H-pyran-3,5-diol]	3.19	–	IC50 [1, 4]: 0.38 µM
Cc1noc(C2CC2)c1[C@@H](S[C@@H]1O[C@H](CO)[C@H](O)[C@H](n2cc(-c3cc(F)c(F)c(F)c3)nn2)[C@H]1O)C1(O)CCCCC1 [Example 2.39.128R., (2S,3R,4S,5R,6R)-2-(((R)-(5-Cyclopropyl-3-methylisoxazol-4-yl)(1-hydroxycyclohexyl)methyl)thio)-6-(hydroxymethyl)-4-(4-(3,4,5-trifluorophenyl)-1H-1,2,3-triazol-1-yl)tetrahydro-2H-pyran-3,5-diol]	1.03	0.19	–
CO[C@@H]1[C@@H](n2cc(-c3cc(F)c(F)c(F)c3)nn2)[C@@H](O)[C@@H](CO)O[C@H]1S[C@H](c1nccnc1Cl)C1(O)CCC(F)(F)CC1 [Example 2.44.133R.I., (2R,3R,4S,5R,6S)-6-(((R)-(3-Chloropyrazin-2-yl)(4,4-difluoro-1-hydroxycyclohexyl)methyl)thio)-2-(hydroxymethyl)-5-methoxy-4-(4-(3,4,5-trifluorophenyl)-1H-1,2,3-triazol-1-yl)tetrahydro-2H-pyran-3-ol [1,3-di-deoxy-1-((4,4-difluoro-1-hydroxy-cyclohexan-1-yl)-(3-(-chloro)pyrazin-2-yl)methyl-(R)-thio)-2-O-methyl-3-[4-(3,4,5-trifluorophenyl)-1H-1,2,3-triazol-1-yl]-b-D-galactopyranoside]]	0.66	–	IC50 [1, 3]: 0.04 µM
(2S,3R,4S,5R,6R)-2-(((4-Hydroxy-2,2,6,6-tetramethyltetrahydro-2H-pyran-4-yl)(2-(trifluoromethyl)phenyl)methyl)thio)-6-(hydroxymethyl)-4-(4-(3,4,5-trifluorophenyl)-1H-1,2,3-triazol-1-yl)tetrahydro-2H-pyran-3,5-diol [Example 2.42.102.]	18.5	0.38	–
Cc1conc1[C@H](S[C@@H]1O[C@H](CO)[C@H](O)[C@H](n2cc(-c3cc(F)c(F)c(F)c3)nn2)[C@H]1O)C(C)(C)O [Example 2.31.120S., (2S,3R,4S,5R,6R)-2-(((S)-2-Hydroxy-2-methyl-1-(4-methylisoxazol-3-yl)propyl)thio)-6-(hydroxymethyl)-4-(4-(3,4,5-trifluorophenyl)-1H-1,2,3-triazol-1-yl)tetrahydro-2H-pyran-3,5-diol]	61.3	–	IC50 [1, 4]: 12.4 µM
(2S,3R,4S,5R,6R)-2-(((S)-(3,3-Difluoro-1-hydroxycyclobutyl)(3-(trifluoromethyl)pyridin-2-yl)methyl)thio)-6-(hydroxymethyl)-4-(4-(3,4,5-trifluorophenyl)-1H-1,2,3-triazol-1-yl)tetrahydro-2H-pyran-3,5-diol [Example 2.35.125S.]	21.8	3	–
Cc1cccnc1[C@H](S[C@@H]1O[C@H](CO)[C@H](O)[C@H](n2cc(-c3cc(F)c(F)c(F)c3)nn2)[C@H]1O)C1(O)CCOCC1 [Example 2.41.126S., (2R,3R,4S,5R,6S)-2-(Hydroxymethyl)-6-(((S)-(4-hydroxytetrahydro-2H-pyran-4-yl)(3-methylpyridin-2-yl)methyl)thio)-4-(4-(3,4,5-trifluorophenyl)-1H-1,2,3-triazol-1-yl)tetrahydro-2H-pyran-3,5-diol]	70.4	–	IC50 [1, 4]: 2.25 µM
CCn1nnc(C)c1C(S[C@@H]1O[C@H](CO)[C@H](O)[C@H](n2cc(-c3cc(F)c(F)c(F)c3)nn2)[C@H]1OC)C1(O)CCC(F)(F)CC1 (stereo partly drawn) [Example 2.44.138.I., (2R,3R,4S,5R,6S)-6-(((4,4-Difluoro-1-hydroxycyclohexyl)(1-ethyl-4-methyl-1H-1,2,3-triazol-5-yl)methyl)thio)-2-(hydroxymethyl)-5-methoxy-4-(4-(3,4,5-trifluorophenyl)-1H-1,2,3-triazol-1-yl)tetrahydro-2H-pyran-3-ol]	0.84	–	IC50 [1, 3]: 0.3 µM
CCc1c([C@@H](S[C@@H]2O[C@H](CO)[C@H](O)[C@H](n3cc(-c4cc(F)c(F)c(F)c4)nn3)[C@H]2OC)C2(O)CCC(F)(F)CC2)noc1C1CC1 [Example 2.44.130R.I.]	0.16	–	IC50 [1, 3]: 0.06 µM
OC[C@H]1O[C@@H](SC(c2ccccc2C(F)(F)F)C2(O)CC(F)(F)C2)[C@H](O)[C@@H](n2cc(-c3cc(F)c(F)c(F)c3)nn2)[C@H]1O (stereo partly drawn) [Example 2.33.112., (2S,3R,4S,5R,6R)-2-(((3,3-Difluoro-1-hydroxycyclobutyl)(2-(trifluoromethyl)phenyl)methyl)thio)-6-(hydroxymethyl)-4-(4-(3,4,5-trifluorophenyl)-1H-1,2,3-triazol-1-yl)tetrahydro-2H-pyran-3,5-diol]	1.8	0.25	–
(2S,3R,4S,5R,6R)-2-(((S)-((S)-4-Hydroxy-2,2-dimethyltetrahydro-2H-pyran-4-yl)(2-(trifluoromethyl)phenyl)methyl)thio)-6-(hydroxymethyl)-4-(4-(3,4,5-trifluorophenyl)-1H-1,2,3-triazol-1-yl)tetrahydro-2H-pyran-3,5-diol [Example 2.43.102SS.]	69.5	3.92	–
Cc1ccccc1[C@@H](S[C@@H]1O[C@H](CO)[C@H](O)[C@H](n2cc(-c3cc(F)c(F)c(F)c3)nn2)[C@H]1O)C1(O)CCCC1 [Example 2.38.102R., (2S,3R,4S,5R,6R)-2-(((R)-(1-Hydroxycyclopentyl)(o-tolyl)methyl)thio)-6-(hydroxymethyl)-4-(4-(3,4,5-trifluorophenyl)-1H-1,2,3-triazol-1-yl)tetrahydro-2H-pyran-3,5-diol]	1.8	0.11	–
